# Source: patent US9815815B2, “Non-selective kinase inhibitors” (GILEAD SCIENCES, INC., priority 2013, dated 2017)
# Assays:
# [1] = tested on: PDGFBB stimulated AKT phosphorylation; experiment: In cell Western (ICW), PDGFBB stimulated AKT phosphorylation in human fetal lung fibroblasts; type: cell-based; settings: comparison in words
# Protocol: In cell Western (ICW). […] HLFs were maintained in subculture at no more than 6 passages in DMEM with 5% FBS and 4 mM Glutamax at 37° C., 5% CO2. HLFs were plated and grown to 70-80% confluence in 96 well plates then serum-starved for 48 hours. […] Antibodies were detected using IRDye 680LT goat anti-mouse IgG and IRDye 800W goat a-rabbit IgG conjugated antibodies. After washing, the signal was quantified using an Odyssey Infrared Imaging System (LI-COR). Phosphoprotein signal (800 nm) was normalized to total protein signal (700 nm) acquired from each well and experimental duplicates on same plate were averaged and reported.
# rat MCT+PN model = experiment: RV pressure, PV loops, RV hypertrophy and morphometry in the rat MCT+PN model; type: in vivo; settings: for ESV: PV loop, second part of Table 3
# Protocol: Measurement of PV loops. In a separate cohort of animals, the MCT+PN model was developed as described above, and PK10453 (Structure 2) was then administered for 4 or 8 min three times a day to the drug treated group. The vehicle control group underwent 4 min exposures three times a day. Pressure Volume (PV) loops were obtained with an admittance system (Scisense, Inc.) after 14 days of treatment, while rats were under general anesthesia with isoflurane and 100% FiO2. Also, or in the alternative, RV pressures were obtained in each group after 14 days of treatment. In a subset of each group, pressure Volume (PV) loops were obtained with an admittance system (high fidelity catheter FTE1918B, Scisense, Inc.) after 14 days of treatment. After induction of general anesthesia and intubation via tracheostomy, the rats were placed on a pressure controlled ventilator (TOPOVENT). General anesthesia consisted of isoflurane and 100% FiO2 with peak inspiratory pressure set at 18 cm, and PEEP 5 cm H2O. A left thoracotomy was performed with admittance catheter in the RV via the RV outflow tract.
# Histology and morphometric analysis. At the end of the study, the heart and lungs were removed from ventilated animals under general anesthesia. Heparinized saline was infused under pressure through the main pulmonary artery. The right upper lobe was immediately tied off and placed in liquid nitrogen for Western blot and NanoPro 100 ™ assay analysis. The heart was removed, and the RV free wall, interventricular septum and LV free wall dissected and weighed. Buffered formalin (10%) was infused under pressure both through the pulmonary artery and the trachea. Morphometric analysis was performed on H&E stained formalin fixed tissue sectioned at 8 μm. The media area and lumen area of pulmonary arterioles were measured with Image J software by a technician blinded to treatment group. Measurements were made on 20 pulmonary arterioles per section. The ratio of the lumen area to the total media area was determined This ratio normalizes the variation in total pulmonary arteriole area. […]
# [2] = Pharmacokinetic study, lung and plasma levels after inhalation or IV; type: in vivo, rat
# Protocol: Pharmacokinetic studies. PK10453 (Structure 2) was administered intravenously or by inhalation to animals, which were then euthanized at time 0, 10, 20, and 60 min (n=3 each time point). Blood samples were taken by cardiac puncture, and the lungs excised. The lungs were homogenized and PK10453 (Structure 2) extracted with a 1:3 mixture of acetonitrile:methanol. Similarly, plasma was extracted with a 1:3 mixture of acetonitrile:methanol. Drug was assayed by LC MS/MS (PharmOptima Inc., Portage Mich.). First order exponential curves were fit to the data with Excel. AUC was determined with the trapezoidal method of integration.
# For the pharmacokinetic study, the concentration of PK10453 (Structure 2) in lung when administered by inhalation was compared to the concentration achieved with IV administration. As described in Morén “Aerosols in medicine : principles, diagnosis, and therapy.” Amsterdam; New York: Elsevier. (1993) and Phalen et al., “Inhalation exposure methodology.” Environ Health Perspect 56:23-34 (1984)), it is possible to estimate the pharmacokinetic advantage of inhalation relative to intravenous administration, Rd, by comparing the AUC of a plot of the drug concentration as a function of time following respiratory and IV administration: Rd=[(AUClung/AUCplasma)respiratory]/[(AUClung/AUCplasma)IV]
# [3] = tested on: PDGFBB stimulated phosphorylation of ERK1 and ERK2; experiment: PDGFBB stimulated phosphorylation of ERK1 and ERK2 in human fetal lung fibroblasts; type: cell-based
compound,measurement,setting,value
"COc1cc(-c2cncc(N[C@@H](C)c3cccc(NC(=O)c4cncc(C)c4)c3)n2)ccc1O [PK10453, (S)-N-(3-(1-((6-(4-hydroxy-3-methoxyphenyl)pyrazin-2yl)amino)ethyl)phenyl)-5-methylnicotinamide]","IC50 for inhibiting PDGFBB stimulated AKT phosphorylation, compared to imatinib",[1],lower IC50 concentrations compared to imatinib
same,RV systolic pressure,"rat MCT+PN model; D8: 8 min 3x/day, 14 days",43.0±3.0 mm Hg
same,ESV,"rat MCT+PN model; D4, mean",408.95 µL
same,ESV,"rat MCT+PN model; D8, mean",488.68 µL
same,Rd = [(AUClung/AUCplasma)respiratory]/[(AUClung/AUCplasma)IV],[2]; inhalation relative to IV,44.6
same,advantage of inhaled compared to IV administration,[2]; lung/plasma AUC ratio,45 fold
same,PDGFBB stimulated ppERK1 formation,[3]; 1 uM,effective
same,"decreasing PDGF BB stimulated ppERK1 and ppERK2, compared to imatinib",[3]; 1 uM and 10 uM,more effective
